Bases are written 5' to 3'; sugars and linkages follow in the same order, as letters with counts (s phosphorothioate, o phosphodiester; PS: all linkages phosphorothioate). The collection does not say whether C is 5-methylated. l = locked nucleic acid (LNA); d = 2'-deoxy (DNA) Some results are limits rather than exact numbers.

This data set has as its target Tau. Description: rat primary cortical neurons, FLIPR, 25 uM ASO.
For GTTTTTTAACTCCCAAC (sugars l4 d9 l4, PS), the calcium oscillation score was 74.1 % of control.

Consider “TTTTATTTCCTCCGCCA (sugars l2 d13 l2, PS)”, for which the calcium oscillation score is 18.5 % of control.

On to TGATACCCTTCCTCAG (sugars l2 d12 l2, PS), for which the calcium oscillation score is 4.76 % of control.

Take “TCTTCCACTACAAGCTCC (sugars l2 d14 l2, PS)”: the calcium oscillation score is 55.8 % of control.

As for “CAGGTTAAGTGATTAACCAA (sugars l3 d14 l3, PS)”, the calcium oscillation score is 17.4 % of control.

With “TGCCTAATGAGCCACACTTG (sugars l3 d14 l3, PS)”, the calcium oscillation score is 29.9 % of control.

In the case of “CTACCCCATTTTTGACAT (sugars l3 d13 l2, PS)”, the calcium oscillation score is 48.7 % of control.

With CCAATACTAGATCTAT (sugars l4 d8 l4, PS), the calcium oscillation score was 64.7 % of control.

For the sequence AGGTCACCTTGCTCAG (sugars l3 d10 l3, PS), the calcium oscillation score was 52.8 % of control.

Consider “TTATTTATTCTTTTTATTAT (sugars l4 d12 l4, PS)”, for which the calcium oscillation score was 66.3 % of control.

On to “CATCTCTCTAGACATCTC (sugars l2 d13 l3, PS)”, for which the calcium oscillation score is 64.6 % of control.

As for “TAATGAGCCACACTTGGAGG (sugars l3 d14 l3, PS)”, the calcium oscillation score is 0 % of control.

As for GCGCAGGCGCGAGCAG (sugars l3 d10 l3, PS), the calcium oscillation score was 0 % of control.

Turning to “TTATTTCCAAATTCACTTTT (sugars llddlldddddddddlldll, PS)”, the calcium oscillation score is 88.8 % of control.

Take “TTCTTAGAGGACTGCAACGC (sugars l3 d14 l3, PS)”: the calcium oscillation score was 23.9 % of control.

For TGGCGGTGACTGCGA (sugars l3 d9 l3, PS), the calcium oscillation score was 107 % of control.

Take CAGCCACTGTTGCCAC (sugars l2 d12 l2, PS): the calcium oscillation score is 51.2 % of control.

On to CATCGCTTCCAGTC (sugars l3 d8 l3, PS), for which the calcium oscillation score was 116 % of control.

As for CTAATCCTGTGCTTCA (sugars l3 d10 l3, PS), the calcium oscillation score is 100 % of control.

For “TACCAATTATCTTTAAATTC (sugars l4 d12 l4, PS)”, the calcium oscillation score was 64.4 % of control.

As to “TTTTTTAACTCCCAACTC (sugars l4 d10 l4, PS)”, the calcium oscillation score was 95.2 % of control.

Turning to AAGAGGGCAGCAGGCC (sugars l3 d10 l3, PS), the calcium oscillation score is 73.1 % of control.

Take “AGAGAGACCACATTATCATC (sugars l3 d14 l3, PS)”: the calcium oscillation score is 68.5 % of control.

For GAAAACCATCAACCAC (sugars l4 d8 l4, PS), the calcium oscillation score is 44.3 % of control.

Regarding “ATTAACCAATTAACCGAACT (sugars l3 d14 l3, PS)”, the calcium oscillation score was 45.2 % of control.

On to “CGTCTTTGCTTTTACTGACC (sugars l3 d14 l3, PS)”, for which the calcium oscillation score is 29.6 % of control.

Regarding TCCATCCTAAGTCAAC (sugars l3 d9 l4, PS), the calcium oscillation score is 65.3 % of control.

In the case of “CTAATTCCCAAATTCCTCA (sugars l2 d14 l3, PS)”, the calcium oscillation score is 62.1 % of control.

Regarding “TTATTTCCAAATTCACTTTT (sugars lldldlddddddddddllll, PS)”, the calcium oscillation score was 88.8 % of control.

AGCAATAGCAAACAG (sugars l3 d9 l3, PS): the calcium oscillation score was 52.8 % of control.

Consider TATCTGCAAACTCAAC (sugars l4 d8 l4, PS), for which the calcium oscillation score is 98.9 % of control.

Consider CGAATTACCTAACCTC (sugars l3 d9 l4, PS), for which the calcium oscillation score was 88.2 % of control.

For “CTTTATTTCCAAATTCACT (sugars l3 d11 l2 d1 l2, PS)”, the calcium oscillation score is 116 % of control.

In the case of CCTATGCCAATTATTT (sugars l4 d8 l4, PS), the calcium oscillation score was 68.2 % of control.

On to “ATTTTACTACTCTCTTTT (sugars l4 d10 l4, PS)”, for which the calcium oscillation score is 75 % of control.

AGTCCCGAGCCAAAG (sugars l3 d9 l3, PS): the calcium oscillation score was 36.6 % of control.

As to TTAACTCATCAACACCT (sugars l4 d9 l4, PS), the calcium oscillation score was 86.6 % of control.

Take “CACCTTCAGCCCAACTT (sugars l4 d11 l2, PS)”: the calcium oscillation score was 41.6 % of control.

Turning to “TCTCAAAAATCAACGCC (sugars l4 d10 l3, PS)”, the calcium oscillation score is 94.5 % of control.

GGTTGGATCAGAGGGT (sugars l3 d10 l3, PS): the calcium oscillation score is 7.41 % of control.

As to GTTAGCCCTAAAGT (sugars l3 d8 l3, PS), the calcium oscillation score is 61 % of control.

On to “ATTTCCAAATTCACTTTTAC (sugars l1 d17 l2, PS)”, for which the calcium oscillation score was ≥ 200 % of control.

Take “ACTCAACATTACCCTTAAA (sugars l4 d11 l4, PS)”: the calcium oscillation score was 82.4 % of control.

In the case of TTTGATAAAACATCCC (sugars l4 d8 l4, PS), the calcium oscillation score was 89 % of control.

As to CTAAAGTCCCAGGTCT (sugars l3 d10 l3, PS), the calcium oscillation score was 59.2 % of control.

On to “TGTCCAGGGACCCAATCTTC (sugars l3 d14 l3, PS)”, for which the calcium oscillation score was 39.9 % of control.

Turning to TTTAGCAGAGGAACGT (sugars l3 d10 l3, PS), the calcium oscillation score was 15.6 % of control.

“GGTTTATGATGGATGTTGCC (sugars l3 d14 l3, PS)”: the calcium oscillation score was 26.6 % of control.

As for CCTGGTGGCGTTGGCC (sugars l3 d10 l3, PS), the calcium oscillation score was 32.6 % of control.

As to CATCACTTCGAACTCC (sugars l3 d10 l3, PS), the calcium oscillation score is ≥ 200 % of control.

With “TATTGTCCAGGGACCCAATC (sugars l3 d14 l3, PS)”, the calcium oscillation score was 33.2 % of control.

As to “AAAGATGAAATTTGCTCTTA (sugars l3 d14 l3, PS)”, the calcium oscillation score was 145 % of control.

Consider ACCTCGTCAGCTAGCG (sugars l3 d10 l3, PS), for which the calcium oscillation score was 65.2 % of control.

Turning to GCAGGCGCGAGCAGCG (sugars l3 d10 l3, PS), the calcium oscillation score was 23.5 % of control.

“AAATCAATTCTCATTTCAAC (sugars l4 d12 l4, PS)”: the calcium oscillation score is 58.2 % of control.

Turning to TCGTCAGCTAGCGTGG (sugars l3 d10 l3, PS), the calcium oscillation score was 55.2 % of control.

On to AATAGCAAACAGGAT (sugars l3 d9 l3, PS), for which the calcium oscillation score is 3.83 % of control.

In the case of “GATGTTGCCTAATGAGCCAC (sugars l3 d14 l3, PS)”, the calcium oscillation score was 4.52 % of control.

Consider CGACTTGTACACGATC (sugars l3 d10 l3, PS), for which the calcium oscillation score was 48.9 % of control.

“CCCTTCAACATCAGCCA (sugars l2 d13 l2, PS)”: the calcium oscillation score is 47.6 % of control.

Take “CTTTTCCCAATTATTAACC (sugars l3 d14 l2, PS)”: the calcium oscillation score is 54.5 % of control.

TAGTCACTCTGGTG (sugars l3 d8 l3, PS): the calcium oscillation score was 81.9 % of control.

Regarding “TTCCCACAATTCCTACA (sugars l3 d12 l2, PS)”, the calcium oscillation score is 73.4 % of control.

As to “CACATGCACCCAACTCTA (sugars l2 d13 l3, PS)”, the calcium oscillation score was 60.2 % of control.

In the case of CGTGGTCTGTCTTG (sugars l3 d8 l3, PS), the calcium oscillation score was 0 % of control.

With “TATTTCCAAATTCACTTTTA (sugars llddlldddddddddldlll, PS)”, the calcium oscillation score was 120 % of control.

Turning to “ACCACCTCATTAAGATC (sugars l4 d11 l2, PS)”, the calcium oscillation score is 58.3 % of control.

As to “CCCCATTTATCCTTCATG (sugars l2 d14 l2, PS)”, the calcium oscillation score was 49.4 % of control.

For the sequence ATGATGGATGTTGCCT (sugars l3 d10 l3, PS), the calcium oscillation score is 0 % of control.

“ACTAGCCCACCCATCAATTT (sugars l3 d14 l3, PS)”: the calcium oscillation score is 12.9 % of control.

For the sequence GCTAAGGCAAGGCCTA (sugars l3 d10 l3, PS), the calcium oscillation score is 129 % of control.

Regarding “TTGGAAAGATGAAATTTGCT (sugars l3 d14 l3, PS)”, the calcium oscillation score was 1.45 % of control.

For GTCTGAGCTACCAGGA (sugars l3 d10 l3, PS), the calcium oscillation score was 11.7 % of control.

“AAACCAACTCAACATTACCC (sugars l3 d15 l2, PS)”: the calcium oscillation score was 94.3 % of control.

Take CGCTTCCAGTCCCGTC (sugars l3 d10 l3, PS): the calcium oscillation score is 15.7 % of control.

In the case of TCAGGTCTGGCATGG (sugars l3 d9 l3, PS), the calcium oscillation score was 0 % of control.

“GTGATTAACCAATTAACCGA (sugars l3 d14 l3, PS)”: the calcium oscillation score was 6.48 % of control.

Regarding “ATGAGCCACACTTGGAGGTC (sugars l3 d14 l3, PS)”, the calcium oscillation score was 19.9 % of control.

In the case of “CCCACCCAAACTCCAAGT (sugars l2 d13 l3, PS)”, the calcium oscillation score is 69.3 % of control.

TTTGTAGACTATTTGC (sugars l3 d10 l3, PS): the calcium oscillation score was 0 % of control.

On to “TCCCTTAACAATATGCT (sugars l2 d11 l4, PS)”, for which the calcium oscillation score is 75.1 % of control.

Regarding “CACATGCTCACACACCAC (sugars l2 d13 l3, PS)”, the calcium oscillation score is 97.5 % of control.

In the case of “ACTGCTCAGCTAAGACCCTC (sugars l3 d14 l3, PS)”, the calcium oscillation score was 23.9 % of control.

Regarding TACATGCGTCCTTT (sugars l3 d8 l3, PS), the calcium oscillation score is 91.8 % of control.

Turning to “TAATTCCCAAATTCCTCATA (sugars l2 d14 l4, PS)”, the calcium oscillation score is 53.9 % of control.

On to “AGGCAAAGGTTTATCTTCCA (sugars l3 d14 l3, PS)”, for which the calcium oscillation score was 33 % of control.

As for AAAGTACTATCCACTT (sugars l4 d8 l4, PS), the calcium oscillation score was 79.1 % of control.

For the sequence “ACTTTATTTCCAAATTCACTTTTAC (sugars llldddddddddddddddddldldl, PS)”, the calcium oscillation score is 17.7 % of control.

On to “TGAAGTCCCGAGCCAAAGCC (sugars l3 d14 l3, PS)”, for which the calcium oscillation score is 0 % of control.

Take “TCATCTTTTCTAGAACC (sugars l4 d10 l3, PS)”: the calcium oscillation score is 70.9 % of control.

With “CATGCAGTTTATTCCTGGCA (sugars l3 d14 l3, PS)”, the calcium oscillation score is 6.04 % of control.

Take CCCCTCCATTAAGAAC (sugars l3 d11 l2, PS): the calcium oscillation score was 68.1 % of control.

Turning to “TCCTTGAAGTCAAGCTTCTC (sugars l3 d14 l3, PS)”, the calcium oscillation score is 49.8 % of control.

For “CCAATCTTCGACTGGACTCT (sugars l3 d14 l3, PS)”, the calcium oscillation score is 22.6 % of control.

As for “ACAACAAACATCTAAACACC (sugars l3 d13 l4, PS)”, the calcium oscillation score was 84.5 % of control.

The record behind these values is the OligoGym collection.
